Measured values reported in patent US11549123B2, “Plant EPSP synthases and methods of use” (PIONEER HI-BRED INTERNATIONAL, INC., priority 2015, dated 2023).

What was measured:
Type in all cases: biochemical
[1] = target: Oryza sativa EPSPS with 868-H6 mutations, SEQ ID NO:11 (Oryza sativa, UniProt Q93VK6, A482G/A67R/A69W/D368S/D468G/E457G/G168A/I274L/K149R/L164C/T345A/T427S/T507Q/V137Q/V504R); test: EPSPS substrate saturation kinetics, rice H6
Description: EPSPS activity was determined by quantifying the phosphate generated from the EPSPS reaction. Release of inorganic phosphate was coupled to reaction with 2-amino-6-mercapto-7-methylpurine ribonucleoside, catalyzed by purine-nucleoside phosphorylase (M R Webb, Proc. Natl. Acad. Sci. 89:4884-4887, 1992). The absorbance change that occurs was monitored at 360 nm, where the extinction is 11,200 M^−1 cm^−1, with a Spectramax plate reader (Molecular Devices). To determine kinetic parameters, the varied substrate was present at seven concentrations (the eighth being the blank, containing no substrate) ranging from 4 to 400 uM and the unvaried substrate present at saturation. […] Reactions were monitored with a Spectramax plate reader. […] KI was then calculated from the following form of the Michaelis-Menten equation for competitive inhibition: KI=KM[I]/(KM app−KM) KM approximates the dissociation constant of the enzyme-substrate complex while kcat is the rate of conversion of substrate to product when the substrate concentration is saturating. kcat/KM is a widely accepted parameter for catalytic efficiency when substrate concentration is low (˜KM). […] The parameter kcat/KM×KI is used to quantify both catalytic efficiency and insensitivity and thus the overall fitness of the enzyme. […]

[2] = target: Bacterial EPSPS (CP4) (Agrobacterium sp., UniProt Q9R4E4); test: Rapid two-rate method for (kcat/KM)*KI, bacterial EPSPS (CP4)
Source text: There are several practical considerations for accurately estimating (kcat/KM)*KI with the rapid method. […] 2) The inhibitor concentration must be adjusted so as to obtain a degree of inhibition that minimally amplifies the error in the term v0-vi in Equation 3. If inhibition is too little, v0-vi will be small, and the error in the multiplier vi×v0/(v0-vi) will be large. […] 3) Substrate concentration should be set at the approximate KM of the parental variant(s), subject to the sensitivity of the assay. High substrate concentration obscures sensitivity to the inhibitor and reduces stringency for capturing improvements in KM. Depending on the necessity for speed, there exists opportunity for customizing enzyme and inhibitor concentrations. […] The rapid method was repeated for those and obtained data that correlated better with data obtained by substrate saturation analysis. For screening purposes however, that correlation step is not necessary. Conditions can be set so that variants with a pre-determined minimal fitness level are accurately quantified.
In Table 15, parameters above the heavy line for the rapid method were obtained under standard conditions. For variants shown below the heavy line, the rapid analysis was repeated with enzyme or glyphosate concentrations adjusted as needed to generate sufficient signal within the limits for linear initial rates.

[3] = target: T1, Zea mays EPSPS variant Zm-P107S (Zea mays, UniProt O24566, P106S); test: Substrate saturation kinetic analysis with glyphosate, Zm-P107S
T1 construct: native maize plus P107S; E. coli BL21(DE3), Ni-NTA purified
T1 sequence (O24566 with tags, fused parts or gaps P106S): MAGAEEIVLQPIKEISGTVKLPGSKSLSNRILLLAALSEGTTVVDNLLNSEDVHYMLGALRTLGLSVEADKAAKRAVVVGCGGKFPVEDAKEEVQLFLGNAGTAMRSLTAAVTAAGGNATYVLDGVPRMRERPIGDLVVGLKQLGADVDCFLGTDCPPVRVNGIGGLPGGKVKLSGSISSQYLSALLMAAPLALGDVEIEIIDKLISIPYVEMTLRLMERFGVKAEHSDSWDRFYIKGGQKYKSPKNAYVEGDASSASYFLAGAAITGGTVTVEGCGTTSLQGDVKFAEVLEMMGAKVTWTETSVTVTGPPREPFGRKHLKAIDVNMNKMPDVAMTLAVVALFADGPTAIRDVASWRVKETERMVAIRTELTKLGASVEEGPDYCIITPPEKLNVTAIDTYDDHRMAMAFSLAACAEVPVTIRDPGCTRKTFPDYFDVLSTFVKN

[4] = target: T2, Zea mays EPSPS variant Zm-H6 (868-H6) with V87T (H6-V87T) (Zea mays, UniProt O24566, A1R/A3W/A415G/A71Q/D401G/E301S/E390G/G101A/I207L/K83R/L97C/T278A/T360S/T440Q/V437R/V86T); test: Substrate saturation kinetic analysis with glyphosate, H6-V87T
T2 construct: 868-H6 plus V87T; E. coli BL21(DE3), Ni-NTA purified
T2 sequence (O24566 with tags, fused parts or gaps A1R/A3W/A71Q/K83R/V86T/L97C/G101A/I207L/T278A/E301S/T360S/E390G/D401G/A415G/V437R/T440Q): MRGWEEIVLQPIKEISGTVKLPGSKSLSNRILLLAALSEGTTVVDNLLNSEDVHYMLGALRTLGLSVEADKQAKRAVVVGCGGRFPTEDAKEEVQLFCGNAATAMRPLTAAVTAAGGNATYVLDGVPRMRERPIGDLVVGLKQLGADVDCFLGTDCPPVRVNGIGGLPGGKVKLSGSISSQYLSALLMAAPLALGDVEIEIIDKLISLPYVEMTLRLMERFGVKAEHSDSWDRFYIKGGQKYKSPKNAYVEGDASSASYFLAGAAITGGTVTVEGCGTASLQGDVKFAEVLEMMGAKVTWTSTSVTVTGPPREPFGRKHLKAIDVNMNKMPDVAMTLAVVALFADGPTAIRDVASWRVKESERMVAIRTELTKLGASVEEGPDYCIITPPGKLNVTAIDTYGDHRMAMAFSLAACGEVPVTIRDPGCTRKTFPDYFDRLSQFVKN

Chain of Oryza sativa EPSPS with 868-H6 mutations, SEQ ID NO:11 (Q93VK6 64-511 with the stated changes): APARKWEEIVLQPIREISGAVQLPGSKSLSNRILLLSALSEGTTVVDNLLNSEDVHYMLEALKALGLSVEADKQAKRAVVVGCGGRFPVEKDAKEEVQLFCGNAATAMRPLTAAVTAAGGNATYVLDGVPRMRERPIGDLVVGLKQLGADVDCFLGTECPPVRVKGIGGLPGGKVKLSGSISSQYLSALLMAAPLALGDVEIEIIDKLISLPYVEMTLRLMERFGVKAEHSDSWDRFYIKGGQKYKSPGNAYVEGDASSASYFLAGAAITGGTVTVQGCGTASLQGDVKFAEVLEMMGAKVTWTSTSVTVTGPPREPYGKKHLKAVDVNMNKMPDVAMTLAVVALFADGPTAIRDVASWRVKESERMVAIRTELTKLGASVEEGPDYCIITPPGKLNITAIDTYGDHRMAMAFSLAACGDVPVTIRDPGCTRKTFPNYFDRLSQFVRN
Chain of Bacterial EPSPS (CP4) (Q9R4E4 whole entry): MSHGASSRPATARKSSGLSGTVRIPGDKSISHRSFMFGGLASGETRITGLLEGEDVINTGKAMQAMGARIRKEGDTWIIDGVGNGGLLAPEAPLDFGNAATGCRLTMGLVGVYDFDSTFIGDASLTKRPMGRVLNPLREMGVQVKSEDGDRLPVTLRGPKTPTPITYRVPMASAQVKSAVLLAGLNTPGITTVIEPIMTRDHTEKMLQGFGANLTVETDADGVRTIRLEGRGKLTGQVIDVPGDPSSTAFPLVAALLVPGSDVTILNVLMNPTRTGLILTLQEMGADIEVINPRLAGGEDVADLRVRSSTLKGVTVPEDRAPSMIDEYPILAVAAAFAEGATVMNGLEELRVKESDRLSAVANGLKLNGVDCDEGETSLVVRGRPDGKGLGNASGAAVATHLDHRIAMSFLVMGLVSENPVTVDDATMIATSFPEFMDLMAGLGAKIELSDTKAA

For `O=C(O)CNCP(=O)(O)O` [glyphosate, N-phosphonomethylglycine], the Ki [1] was 907 µM, the “(kcat/KM)*KI” value ([1]; PEP as substrate, glyphosate as inhibitor) was 9200 and the “(kcat/KM)*KI” value ([2]; rapid method repeated, CP4, [E] 0.007 uM, [Gly] 2000 uM) was 111800. For the same molecule, the “(kcat/KM)*KI” value ([2]; rapid method, Bacterial EPSPS, [E] 0.07 uM, [Gly] 1000 uM) was 64262, the Ki [3] was 0.42 µM and the “(kcat/KM)*KI” value ([3]; substrate saturation, Zm-P107S) was 51. The Ki [4] was 348 µM and the “(kcat/KM)*KI” value ([4]; substrate saturation, H6-V87T) was 3280.
